Here are results for eleven molecules from ChEMBL document CHEMBL3414499, “Characterization of two distinct structural classes of selective aldehyde dehydrogenase 1A1 inhibitors” (J Med Chem, 2015).

pIC50: −log10 of the molar value. Calls of active or inactive are those of the source. The calls are words filed in the database; no cut-off is given here.

Assay [1] deals with T1, Retinal dehydrogenase 2 (Homo sapiens) (UniProt O94788).
T1 sequence (whole entry): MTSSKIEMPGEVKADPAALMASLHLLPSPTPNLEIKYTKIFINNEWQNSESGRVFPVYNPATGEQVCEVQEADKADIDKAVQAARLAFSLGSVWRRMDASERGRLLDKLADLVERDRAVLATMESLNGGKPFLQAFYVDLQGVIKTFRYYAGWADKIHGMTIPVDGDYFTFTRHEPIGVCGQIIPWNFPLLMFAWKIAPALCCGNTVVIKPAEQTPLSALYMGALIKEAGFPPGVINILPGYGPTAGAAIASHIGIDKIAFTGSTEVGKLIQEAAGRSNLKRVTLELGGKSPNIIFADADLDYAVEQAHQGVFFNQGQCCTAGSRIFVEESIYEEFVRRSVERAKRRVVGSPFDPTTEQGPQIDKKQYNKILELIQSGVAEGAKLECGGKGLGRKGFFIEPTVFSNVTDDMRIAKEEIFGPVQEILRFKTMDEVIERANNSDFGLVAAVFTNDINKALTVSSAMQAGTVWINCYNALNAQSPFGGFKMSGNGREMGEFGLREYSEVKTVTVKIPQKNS
Kind of assay: Activation of recombinant human ALDH1A2 using propionaldehyde as substrate at 20 uM preincubated for 2 mins with NAD+ followed by substrate addition by UV-Vis spectrophotometric analysis.

In assay [2] the target is T2, Aldehyde dehydrogenase X, mitochondrial (Homo sapiens, UniProt P30837).
T2 sequence (P30837 whole entry): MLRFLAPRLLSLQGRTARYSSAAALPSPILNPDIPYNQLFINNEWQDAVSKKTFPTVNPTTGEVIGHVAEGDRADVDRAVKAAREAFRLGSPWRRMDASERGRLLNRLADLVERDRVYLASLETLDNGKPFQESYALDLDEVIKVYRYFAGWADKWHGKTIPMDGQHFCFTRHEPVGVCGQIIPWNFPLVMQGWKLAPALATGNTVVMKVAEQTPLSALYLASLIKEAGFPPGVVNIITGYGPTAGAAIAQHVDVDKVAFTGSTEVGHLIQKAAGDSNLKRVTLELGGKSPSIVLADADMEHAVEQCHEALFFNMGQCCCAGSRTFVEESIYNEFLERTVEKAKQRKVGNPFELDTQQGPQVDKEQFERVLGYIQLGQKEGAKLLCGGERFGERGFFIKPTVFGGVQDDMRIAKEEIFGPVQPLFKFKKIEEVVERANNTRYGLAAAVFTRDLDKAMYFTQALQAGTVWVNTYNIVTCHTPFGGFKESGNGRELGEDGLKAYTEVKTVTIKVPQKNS
Briefly: Inhibition of recombinant human ALDH1B1 using propionaldehyde as substrate preincubated for 2 mins with NAD+ followed by substrate addition by UV-Vis spectrophotometric analysis.

The next assay concerns the target T3, Retinal dehydrogenase 2 (Homo sapiens, UniProt O94788).
T3 sequence (O94788 whole entry): T1 sequence (whole entry)
Kind of assay: Inhibition of recombinant human ALDH1A2 using propionaldehyde as substrate preincubated for 2 mins with NAD+ followed by substrate addition by UV-Vis spectrophotometric analysis.

Assay [3] has as its target T4, Aldehyde dehydrogenase X, mitochondrial (Homo sapiens) (UniProt P30837).
T4 sequence (whole entry): T2 sequence (P30837 whole entry)
Kind of assay: Activation of recombinant human ALDH1B1 using propionaldehyde as substrate at 20 uM preincubated for 2 mins with NAD+ followed by substrate addition by UV-Vis spectrophotometric analysis.

For assay [4], the target named is T5, Retinaldehyde dehydrogenase 3 (Homo sapiens) (UniProt P47895).
T5 sequence (whole entry): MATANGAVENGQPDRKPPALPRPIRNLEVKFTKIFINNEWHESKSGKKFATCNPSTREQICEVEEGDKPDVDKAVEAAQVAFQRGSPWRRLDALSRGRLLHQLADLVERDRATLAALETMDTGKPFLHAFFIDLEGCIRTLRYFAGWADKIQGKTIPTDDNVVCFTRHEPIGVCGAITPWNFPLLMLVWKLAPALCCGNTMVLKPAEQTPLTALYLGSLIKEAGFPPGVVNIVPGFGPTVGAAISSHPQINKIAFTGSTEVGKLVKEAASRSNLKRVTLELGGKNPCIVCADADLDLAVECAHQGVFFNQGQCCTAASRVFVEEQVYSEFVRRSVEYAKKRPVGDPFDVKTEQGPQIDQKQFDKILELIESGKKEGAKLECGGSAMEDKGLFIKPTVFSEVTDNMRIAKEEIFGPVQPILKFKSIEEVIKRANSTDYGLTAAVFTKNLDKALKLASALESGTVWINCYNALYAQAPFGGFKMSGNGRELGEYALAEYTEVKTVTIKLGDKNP
Kind of assay: Activation of recombinant human ALDH1A3 using propionaldehyde as substrate at 100 uM preincubated for 2 mins with NAD+ followed by substrate addition by UV-Vis spectrophotometric analysis.

The target in assay [5] is T1, Retinal dehydrogenase 2 (Homo sapiens). Kind of assay: Inhibition of recombinant human ALDH1A2 using propionaldehyde as substrate at 100 uM preincubated for 2 mins with NAD+ followed by substrate addition by UV-Vis spectrophotometric analysis.
Assay [6] deals with T5, Retinaldehyde dehydrogenase 3 (Homo sapiens). Kind of assay: Inhibition of recombinant human ALDH1A3 using propionaldehyde as substrate at 100 uM preincubated for 2 mins with NAD+ followed by substrate addition by UV-Vis spectrophotometric analysis.
For assay [7], the target named is T6, Aldehyde dehydrogenase, dimeric NADP-preferring (Homo sapiens) (UniProt P30838).
T6 sequence (whole entry): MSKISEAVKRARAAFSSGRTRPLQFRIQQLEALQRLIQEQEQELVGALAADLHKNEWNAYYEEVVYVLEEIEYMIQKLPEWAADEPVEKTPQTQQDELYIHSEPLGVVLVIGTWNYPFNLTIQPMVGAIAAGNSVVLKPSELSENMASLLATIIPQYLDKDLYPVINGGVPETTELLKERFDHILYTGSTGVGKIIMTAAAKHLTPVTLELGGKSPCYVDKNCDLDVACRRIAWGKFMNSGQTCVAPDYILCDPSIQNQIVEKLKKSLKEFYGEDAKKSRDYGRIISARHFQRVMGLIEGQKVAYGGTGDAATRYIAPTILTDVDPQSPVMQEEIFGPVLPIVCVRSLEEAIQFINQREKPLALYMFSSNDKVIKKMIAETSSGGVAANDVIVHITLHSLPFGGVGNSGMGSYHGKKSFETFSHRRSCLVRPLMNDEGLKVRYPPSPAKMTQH
Briefly: Activation of recombinant human ALDH3A1 using benzaldehyde as substrate at 100 uM preincubated for 2 mins with NAD+ followed by substrate addition by UV-Vis spectrophotometric analysis.

For assay [8], the target named is T4, Aldehyde dehydrogenase X, mitochondrial (Homo sapiens). Briefly: Inhibition of recombinant human ALDH1B1 using propionaldehyde as substrate at 100 uM preincubated for 2 mins with NAD+ followed by substrate addition by UV-Vis spectrophotometric analysis.

Broadly, the pIC50 is −log10 of the IC50, conventionally taken in molar units. As for `CC(C)CCn1c(CN(C)Cc2ccccc2)nc2c1c(=O)n(C)c(=O)n2C`, the Activity in assay [1] and in [3] was < 10% in each case. Further, the pIC50 (in assay [2]; at Retinal dehydrogenase 2) was < 4.00 throughout. For the same molecule, the outcome in assay [4] was Active.
Turning to `Cn1c(=O)c2c(nc(CN3CCC(C(N)=O)CC3)n2CCCc2ccccc2)n(C)c1=O`, the inhibition result in [5] and in assay [6] was “inactive” throughout. Moreover, the Activity in assay [1] and in assay [3] was < 10% each time. The pIC50 in [2] was < 4.00.
For `Cn1c(=O)c2c(nc(N3CCN(Cc4ccccc4)CC3)n2Cc2cccc(Cl)c2)n(C)c1=O`, the Activity in [1] and in assay [3] was < 10% in each case. The outcome in assay [7] and in [4] was Active. The pIC50 on Retinal dehydrogenase 2 was < 4.00.
Consider `CCCCn1c(Oc2ccc(C(=O)OC)cc2)nc2c1c(=O)n(C)c(=O)n2C`, for which the Activity in [1] and in [3] was < 10% in each case. Moreover, at Retinal dehydrogenase 2, the negative-log IC50 (pIC50) is < 4.00. Moreover, the inhibition entry in assay [8] is “inactive”. In addition, the result in assay [4] was Active.
For the molecule `CCN1CCN(Cc2nc3c(c(=O)n(C)c(=O)n3C)n2CC(=O)c2ccccc2)CC1`, the inhibition result in [5], in [6] and in [8] was “inactive” each time. For the same molecule, the Activity in assay [1] and in [3] was < 10% each time.
With `Cn1c(=O)c2c(nc(N3CCOCC3)n2Cc2ccccc2F)n(C)c1=O`, the Activity in assay [1] and in assay [3] was < 10% in each case. Besides, the inhibition entry in assay [8] was “inactive”. For the same molecule, the result in [4] was Active.
`CCCCn1c(CN2CCN(c3cccc(Cl)c3)CC2)nc2c1c(=O)n(C)c(=O)n2C`: the Activity in assay [1] and in [3] was < 10% throughout. For the same molecule, in assay [7], the result was Active. Also, the pIC50 (in assay [2]; at Retinal dehydrogenase 2) was < 4.00 each time.
On to `CC(C)CCn1c(CN2CCN(C(=O)c3ccco3)CC2)nc2c1c(=O)n(C)c(=O)n2C`, for which the Activity in assay [1] and in [3] was < 10% throughout. The result in assay [7] and in assay [4] was Active.
Turning to `CC(C)CCn1c(CN2CCOCC2)nc2c1c(=O)n(C)c(=O)n2C`, the inhibition entry in assay [5] and in [6] was “inactive” each time. The Activity in [1] and in assay [3] was < 10% in each case. Moreover, in [2], the negative-log IC50 (pIC50) is < 4.00.
Regarding `Cn1c(=O)c2c(nc(SCC(N)=O)n2Cc2ccccc2F)n(C)c1=O`, the inhibition entry in [5] and in assay [8] was “inactive” in each case. The Activity in [1] and in assay [3] was < 10% in each case. Besides, the outcome in [4] was Active.
Regarding `CCCCn1c(CN2CCN(c3ccc(OC)cc3)CC2)nc2c1c(=O)n(C)c(=O)n2C`, in assay [5], the inhibition entry is “inactive”. The Activity in [1] and in assay [3] was < 10% in each case. Further, in assay [2], the pIC50 is < 4.00.
